Counter-ions that a name gives are not always drawn.
Target: T1, recombinant human GSK3β (Homo sapiens, UniProt P49841)
T1 construct: purchased Dundee University, UK
Experiment: GSK3β Scintillation Proximity Assay (ATP competition)
Type: biochemical
Details: inhibition constant from ATP competition, 10 inhibitor concentrations in duplicate; ATP 1 μM; Km of ATP 20 μM
Description: Determination of ATP competition in Scintillation Proximity GSK3β Assay.
GSK3β Scintillation Proximity Assay.
The competition experiments were carried out in duplicate with 10 different concentrations of the inhibitors in clear-bottom microtiter plates (Wallac, Finland). A biotinylated peptide substrate, Biotin-Ala-Ala-Glu-Glu-Leu-Asp-Ser-Arg-Ala-Gly-Ser(PO3H2)-Pro-Gln-Leu (AstraZeneca, Lund), was added at a final concentration of 1 μM in an assay buffer containing 1 mU recombinant human GSK3β (Dundee University, UK), 12 mM morpholinepropanesulfonic acid (MOPS), pH 7.0, 0.3 mM EDTA, 0.01% β-mercaptorethanol, 0.004% Brij 35 (a […] detergent), 0.5% glycerol and 0.5 μg BSA/25 μl. The reaction was initiated by the addition of 0.04 μCi [γ-^33P]ATP (Amersham, UK) and unlabelled ATP at a final concentration of 1 μM and assay volume of 25 μl. After incubation for 20 minutes at room temperature, each reaction was terminated by the addition of 25 μl stop solution containing 5 mM EDTA, 50 μM ATP, 0.1% Triton X-100 and 0.25 mg streptavidin coated Scintillation Proximity Assay (SPA) beads (Amersham, UK). After 6 hours the radioactivity was determined in a liquid scintillation counter (1450 MicroBeta Trilux, Wallac). The inhibition curves were analysed by non-linear regression using GraphPad Prism, USA. The Km value of ATP for GSK30, used to calculate the inhibition constants (Ki) of the various compounds, was 20 μM.

T1 sequence (P49841 whole entry): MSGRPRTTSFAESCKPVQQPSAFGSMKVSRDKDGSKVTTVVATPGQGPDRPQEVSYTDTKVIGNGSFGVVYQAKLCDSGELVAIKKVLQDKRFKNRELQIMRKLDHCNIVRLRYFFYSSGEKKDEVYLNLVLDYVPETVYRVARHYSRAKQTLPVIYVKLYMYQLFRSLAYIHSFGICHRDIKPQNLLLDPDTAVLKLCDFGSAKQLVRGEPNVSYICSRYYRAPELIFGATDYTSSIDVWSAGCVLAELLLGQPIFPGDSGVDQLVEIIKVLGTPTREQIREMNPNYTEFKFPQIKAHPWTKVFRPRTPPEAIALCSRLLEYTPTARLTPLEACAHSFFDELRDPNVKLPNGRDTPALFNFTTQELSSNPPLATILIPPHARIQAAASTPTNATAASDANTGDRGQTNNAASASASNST

Row | Compound | Ki [nM]
1 | COc1cc(Nc2ncc(F)c(-c3cnc(C)n3C)n2)cc(C(F)(F)F)c1 [Example 1, 4-(1,2-Dimethyl-1H-imidazol-5-yl)-5-fluoro-N-[3-methoxy-5-(trifluoromethyl)phenyl]pyrimidin-2-amine] | 10
2 | Cc1ncc(-c2nc(Nc3ccc(CN4CCN(C)CC4)cc3)ncc2F)n1C [Example 29, 4-(1,2-Dimethyl-1H-imidazol-5-yl)-5-fluoro-N-{4-[(4-methylpiperazin-1-yl)methyl]phenyl}pyrimidin-2-amine hydrochloride] | 126
3 | Cc1ncc(-c2nc(Nc3cccc(S(C)(=O)=O)c3)ncc2F)n1C1CCOCC1 [Example 22, 5-Fluoro-N-[3-(methylsulfonyl)phenyl]-4-[2-methyl-1-(tetrahydro-2H-pyran-4-yl)-1H-imidazol-5-yl]pyrimidin-2-amine hydrochloride] | 22
4 | Cc1ncc(-c2nc(Nc3ccc(C(=O)N4CCN(C)CC4)cc3)ncc2F)n1C1CCCCC1 [Example 17, 4-(1-Cyclohexyl-2-methyl-1H-imidazol-5-yl)-5-fluoro-N-{4-[(4-methylpiperazin-1-yl)carbonyl]phenyl}pyrimidin-2-amine hydrochloride] | 14
